According to patent US20230398130A1, “METHODS AND COMPOSITIONS FOR DIFFERENTIATING STEM CELLS” (Massachusetts Institute of Technology, priority 2020, published 2023):

Legend:
[1] = tested on: ISC-enriched organoids; test: Primary screen, 384-well 2.5-D organoid differentiation (ENR+CD, 6 days): basal lysozyme secretion (LYZ.NS); format: cell-based, murine; conditions: primary screen; for Dose.FC.LYZ.NS: FC vs plate median; for Z.LYZ.NS: standard z score; for SSMD.LYZ.NS: strictly standardized mean difference
From the text: (§1) High-throughput screening.

[2] = tested on: ISC-enriched organoids; test: Primary screen, 384-well 2.5-D organoid differentiation (ENR+CD, 6 days): carbachol-induced lysozyme secretion (LYZ.S); format: cell-based, murine; conditions: primary screen; for Dose.FC.LYZ.S: FC vs plate median; for Z.LYZ.S: standard z score; for SSMD.LYZ.S: strictly standardized mean difference
From the text: as §1

[3] = tested on: ISC-enriched organoids; test: Primary screen, 384-well 2.5-D organoid differentiation (ENR+CD, 6 days, Target Selective Inhibitor Library, vs whole-plate median): ATP (CellTiter-Glo 3D, CTG); conditions: primary screen; for Dose.FC.CTG: FC vs plate median; for Z.CTG: standard z score; for SSMD.CTG: strictly standardized mean difference
[4] = 1st of the 4 dose lines of the treatment (dose not given)
[5] = 2nd of the 4 dose lines of the treatment (dose not given)
[6] = 3rd of the 4 dose lines of the treatment (dose not given)
[7] = 4th of the 4 dose lines of the treatment (dose not given)

Row | SMILES | SSMD.LYZ.NS [1, 4] | SSMD.LYZ.NS [1, 5] | SSMD.LYZ.NS [1, 6] | SSMD.LYZ.NS [1, 7] | Z.LYZ.S [2, 4] | Z.LYZ.S [2, 5] | Z.LYZ.S [2, 6] | Z.LYZ.S [2, 7] | SSMD.LYZ.S [2, 4] | SSMD.LYZ.S [2, 5] | SSMD.LYZ.S [2, 6] | SSMD.LYZ.S [2, 7] | Z.CTG ([3]; Dose 0.08 uM) | Z.CTG ([3]; Dose 0.40 uM) | Z.CTG ([3]; Dose 2.00 uM) | Z.CTG ([3]; Dose 10.00 uM) | SSMD.CTG [3, 4] | SSMD.CTG [3, 5] | SSMD.CTG [3, 6] | SSMD.CTG [3, 7] | further results
1 | Cc1cccc(-c2nn3c(c2-c2ccnc4ccc(C(N)=O)cc24)CCC3)n1 [LY2157299] | 0.656 | 0.737 | 0.827 | 1.243 | 1.209 | 1.287 | 0.731 | 1.441 | 1.145 | 1.157 | 0.808 | 1.219 | 0.218 | 0.328 | 0.041 | 0.226 | 0.343 | 0.369 | 0.048 | 0.314 | Dose.FC.LYZ.NS ([1]; Dose 0.08 uM): 0.227 log 2 fold change; Z.LYZ.NS ([1]; Dose 0.08 uM): 1.973; Dose.FC.LYZ.NS ([1]; Dose 0.40 uM): 0.140 log 2 fold change; Z.LYZ.NS ([1]; Dose 0.40 uM): 1.221; Dose.FC.LYZ.NS ([1]; Dose 2.00 uM): 0.092 log 2 fold change; Z.LYZ.NS ([1]; Dose 2.00 uM): 0.799; Dose.FC.LYZ.NS ([1]; Dose 10.00 uM): 0.162 log 2 fold change; Z.LYZ.NS ([1]; Dose 10.00 uM): 1.408; Dose.FC.LYZ.S ([2]; Dose 0.08 uM): 0.187 log 2 fold change; Dose.FC.LYZ.S ([2]; Dose 0.40 uM): 0.199 log 2 fold change; Dose.FC.LYZ.S ([2]; Dose 2.00 uM): 0.113 log 2 fold change; Dose.FC.LYZ.S ([2]; Dose 10.00 uM): 0.223 log 2 fold change; Dose.FC.CTG ([3]; Dose 0.08 uM): 0.091 log 2 fold change; Dose.FC.CTG ([3]; Dose 0.40 uM): 0.137 log 2 fold change; Dose.FC.CTG ([3]; Dose 2.00 uM): 0.017 log 2 fold change; Dose.FC.CTG ([3]; Dose 10.00 uM): 0.095 log 2 fold change
2 | CC(C)(C)Cn1c(N)nc2ccc(-c3[nH]c(C(C)(C)C)nc3-c3ccc(F)cc3)nc21 [LY2228820] | 0.186 | −0.798 | 0.123 | −1.170 | −0.107 | −0.348 | −0.844 | −1.062 | −0.087 | −0.344 | −0.692 | −1.268 | −0.715 | −0.812 | −0.810 | −0.793 | −0.908 | −0.614 | −0.794 | −0.937 | Dose.FC.LYZ.NS ([1]; Dose 0.08 uM): 0.065 log 2 fold change; Z.LYZ.NS ([1]; Dose 0.08 uM): 0.569; Dose.FC.LYZ.NS ([1]; Dose 0.40 uM): −0.100 log 2 fold change; Z.LYZ.NS ([1]; Dose 0.40 uM): −0.874; Dose.FC.LYZ.NS ([1]; Dose 2.00 uM): 0.043 log 2 fold change; Z.LYZ.NS ([1]; Dose 2.00 uM): 0.377; Dose.FC.LYZ.NS ([1]; Dose 10.00 uM): −0.126 log 2 fold change; Z.LYZ.NS ([1]; Dose 10.00 uM): −1.099; Dose.FC.LYZ.S ([2]; Dose 0.08 uM): −0.017 log 2 fold change; Dose.FC.LYZ.S ([2]; Dose 0.40 uM): −0.054 log 2 fold change; Dose.FC.LYZ.S ([2]; Dose 2.00 uM): −0.130 log 2 fold change; Dose.FC.LYZ.S ([2]; Dose 10.00 uM): −0.164 log 2 fold change; Dose.FC.CTG ([3]; Dose 0.08 uM): −0.299 log 2 fold change; Dose.FC.CTG ([3]; Dose 0.40 uM): −0.340 log 2 fold change; Dose.FC.CTG ([3]; Dose 2.00 uM): −0.339 log 2 fold change; Dose.FC.CTG ([3]; Dose 10.00 uM): −0.332 log 2 fold change
3 | Cc1cnc(NC(=O)Nc2cc(Br)c(C)cc2OC[C@@H]2CNCCO2)cn1 [LY2603618] | −0.044 | −0.697 | −1.609 | −1.826 | 0.056 | −0.953 | −1.737 | −2.300 | 0.065 | −0.885 | −1.421 | −1.890 | −0.010 | −0.567 | −0.946 | −2.347 | −0.013 | −0.880 | −1.281 | −2.490 | Dose.FC.LYZ.NS ([1]; Dose 0.08 uM): −0.005 log 2 fold change; Z.LYZ.NS ([1]; Dose 0.08 uM): −0.046; Dose.FC.LYZ.NS ([1]; Dose 0.40 uM): −0.091 log 2 fold change; Z.LYZ.NS ([1]; Dose 0.40 uM): −0.791; Dose.FC.LYZ.NS ([1]; Dose 2.00 uM): −0.193 log 2 fold change; Z.LYZ.NS ([1]; Dose 2.00 uM): −1.685; Dose.FC.LYZ.NS ([1]; Dose 10.00 uM): −0.233 log 2 fold change; Z.LYZ.NS ([1]; Dose 10.00 uM): −2.026; Dose.FC.LYZ.S ([2]; Dose 0.08 uM): 0.009 log 2 fold change; Dose.FC.LYZ.S ([2]; Dose 0.40 uM): −0.147 log 2 fold change; Dose.FC.LYZ.S ([2]; Dose 2.00 uM): −0.269 log 2 fold change; Dose.FC.LYZ.S ([2]; Dose 10.00 uM): −0.356 log 2 fold change; Dose.FC.CTG ([3]; Dose 0.08 uM): −0.004 log 2 fold change; Dose.FC.CTG ([3]; Dose 0.40 uM): −0.238 log 2 fold change; Dose.FC.CTG ([3]; Dose 2.00 uM): −0.396 log 2 fold change; Dose.FC.CTG ([3]; Dose 10.00 uM): −0.983 log 2 fold change
4 | Cc1cc(Nc2cc(CN3CCOCC3)c3nc(C)c(Cc4ccc(Cl)cc4F)n3n2)n[nH]1 [LY2784544] | 0.395 | 0.037 | 0.582 | −2.015 | 0.794 | 0.498 | 0.737 | −2.373 | 0.911 | 0.595 | 0.492 | −2.074 | 0.259 | 0.148 | 0.433 | −1.984 | 0.378 | 0.135 | 0.500 | −1.283 | Dose.FC.LYZ.NS ([1]; Dose 0.08 uM): 0.132 log 2 fold change; Z.LYZ.NS ([1]; Dose 0.08 uM): 1.152; Dose.FC.LYZ.NS ([1]; Dose 0.40 uM): 0.004 log 2 fold change; Z.LYZ.NS ([1]; Dose 0.40 uM): 0.033; Dose.FC.LYZ.NS ([1]; Dose 2.00 uM): 0.068 log 2 fold change; Z.LYZ.NS ([1]; Dose 2.00 uM): 0.591; Dose.FC.LYZ.NS ([1]; Dose 10.00 uM): −0.280 log 2 fold change; Z.LYZ.NS ([1]; Dose 10.00 uM): −2.439; Dose.FC.LYZ.S ([2]; Dose 0.08 uM): 0.123 log 2 fold change; Dose.FC.LYZ.S ([2]; Dose 0.40 uM): 0.077 log 2 fold change; Dose.FC.LYZ.S ([2]; Dose 2.00 uM): 0.114 log 2 fold change; Dose.FC.LYZ.S ([2]; Dose 10.00 uM): −0.367 log 2 fold change; Dose.FC.CTG ([3]; Dose 0.08 uM): 0.108 log 2 fold change; Dose.FC.CTG ([3]; Dose 0.40 uM): 0.062 log 2 fold change; Dose.FC.CTG ([3]; Dose 2.00 uM): 0.181 log 2 fold change; Dose.FC.CTG ([3]; Dose 10.00 uM): −0.831 log 2 fold change
5 | O=C(C[S+]([O-])Cc1ccco1)NC/C=C\COc1cc(CN2CCCCC2)ccn1 (centres unmarked) [Lafutidine] | 0.285 | 0.064 | 0.359 | 0.581 | 0.339 | 0.506 | 0.491 | −0.093 | 0.331 | 0.460 | 0.503 | −0.111 | 0.363 | 0.346 | 0.329 | −0.235 | 0.452 | 0.476 | 0.505 | −0.249 | –
